Test results reported in patent US20050196375A1, “Methods of applying antibiotic compounds to polyurethane biomaterials using textile dyeing technology” (priority 2000, published 2005).

Columns and labels:
[1] = not given; remark: listed apart in the source

- standard affinity of cipro for cPU (T 318.15 K, RT ln K): 1.12 kcal/mol
- saturation value (as quoted in the description): 0.45 g/kg
- exhaustion of cipro on cPU ([1]; applied concentration 0.5% owf, pH 8.6, 20:1, 45° C., 3.5 hours): about 60%
- ciprofloxacin taken up by cPU ([1]; dyeing temperature 55° C., pH 8.6, 20:1, 2% owf, 3.5 hours): 70%
- cipro exhausted on cPU ([1]; dyeing time 3.5 hours, pH 8.6, 20:1, 2% owf, 45° C.): about 61%
Compound: O=C(O)c1cn(C2CC2)c2cc(N3CCNCC3)c(F)cc2c1=O [cipro, ciprofloxacin]
